The target in the first assay is T1, c-MET (HGFR) (Homo sapiens, UniProt P08581).
T1 construct: purchased Upstate 14-526
T1 sequence (P08581 974-1390 limits assumed): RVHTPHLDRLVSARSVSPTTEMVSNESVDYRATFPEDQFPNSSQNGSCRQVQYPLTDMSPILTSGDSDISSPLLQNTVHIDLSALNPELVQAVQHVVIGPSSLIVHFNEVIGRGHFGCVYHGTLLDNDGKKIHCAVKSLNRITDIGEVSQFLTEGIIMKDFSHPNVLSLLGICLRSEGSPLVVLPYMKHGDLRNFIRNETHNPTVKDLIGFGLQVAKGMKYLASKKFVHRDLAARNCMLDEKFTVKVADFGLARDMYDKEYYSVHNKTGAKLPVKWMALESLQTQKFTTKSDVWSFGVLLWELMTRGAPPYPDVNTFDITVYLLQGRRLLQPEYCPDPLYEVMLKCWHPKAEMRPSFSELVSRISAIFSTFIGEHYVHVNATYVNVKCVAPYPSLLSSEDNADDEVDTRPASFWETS
Put plainly: HGFR Continuous-Coupled Spectrophotometric Assay. It is filed as biochemical. To be noted: Met-2 substrate peptide, 50 nM HGFR, 37° C.; read-out: Met Ki. An excerpt: The following in vitro assay may be used to determine the level of activity and effect of the different compounds of the present invention on one or more of the PKs. Similar assays can be designed along the same lines for any PK using techniques well known in the art.
The general procedure is as follows: compounds and kinase assay reagents are introduced into test wells. The assay is initiated by addition of the kinase enzyme. Enzyme inhibitors reduce the measured activity of the enzyme.
In the continuous-coupled spectrophotometric assay the time-dependent production of ADP by the kinase is determined by analysis of the rate of consumption of NADH by measurement of the decrease in absorbance at 340 nm. As the PK produces ADP it is re-converted to ATP by reaction with phosphoenol pyruvate and pyruvate kinase. Pyruvate is also produced in this reaction. Pyruvate is subsequently converted to lactate by reaction with lactate dehydrogenase, which simultaneously converts NADH to NAD.
HGFR Continuous-Coupled Spectrophotometric Assay
This assay analyzes the tyrosine kinase activity of HGFR on the Met-2 substrate peptide, a peptide derived from the activation loop of the HGFR.
• 1. […] Dissolve up in 200 mM HEPES, pH 7.5 at 10 mM stock. • 3. 1 M PEP (phospho-enol-pyruvate) in 200 mM HEPES, pH 7.5 • 4. 100 mM NADH (B-Nicotinamide Adenine Dinucleotide, Reduced Form) in 200 mM HEPES, pH 7.5 • 5. 4 M MgCl2 (Magnesium Chloride) in ddH2O • 6. 1 M DTT (Dithiothreitol) in 200 mM HEPES, pH 7.5 • 7. 15 Units/mL LDH (Lactic Dehydrogenase) • 8. 15 Units/mL PK (Pyruvate Kinase) • 9. 5M NaCl dissolved in ddH2O • 10. Tween-20 (Protein Grade) 10% Solution • 11. 1 M HEPES buffer: (N-[2-Hydroxethyl]piperazine-N-[2-ethanesulfonic acid]) Sodium Salt. Dissolve in ddH2O, adjust pH to 7.5, bring volume to 1 L. Filter at 0.1 μm. • 12. […] 100% DMSO (SIGMA) • 14. […] Beckman DU-650 w/micro cell holders • 18. Beckman 4-position micro cell cuvette Procedure:
Prep Dilution Buffer (DB) for Enzyme (For 30 mL prep) • 1. DB final concentration is 2 mM DTT, 25 mM NaCl2, 5 mM MgCl2, 0.01% Tween-20, and 50 mM HEPES buffer, pH 7.5. • 2. Make up 50 mM HEPES by adding 1.5 mL 1 M HEPES into 28.1 mL of ddH2O. Add rest of the reagents. Into 50 mL conical vial, add 60 μL of 1M DTT, 150 μL 5M NaCl2, 150 μL 1M MgCl2, and 30 μL of 10% Tween-20 to give total volume of 30 mL. • 3. […] Aliquot out DB at 1 mL/tube and label tubes as “DB HGFR” • 5. Note: This can be prepared and stored ahead of time. • 6. Freeze un-used aliquots in microcentrifuge tubes at −20° C. freezer. […] For compound dilution plate, add 4 μL of 10 mM stock into column 1 of plate, and bring volume to 100 μL with 100% DMSO. • 2. Set up the Precision 2000 dilution method. A final concentration of 200 μM compound in 50% DMSO, 100 mM HEPES (1:2 serial dilution). Prep Coupled Enzymatic Buffer:
1. Final concentration in assay:
• 2. For a 10 mL reaction buffer add 10 μL of 1M PEP, 33 μL of 100 mM NADH, 50 μL of 4M MgCl2, 20 μL of 1M DTT, 6 μL of 500 mM ATP, and 500 μL of 10 mM Met-2 peptide into 100 mM HEPES buffer pH 7.5 and vortex/mix. • 3. Add coupling enzymes, LDH and PK, into reaction mix. Mix by gentle inversion. Running Samples
1. Spectrophotometer settings:
• 2. Add 85 μL of CE reaction mix into each well of assay plate. • 3. Add 5 μL of diluted compound into a well of the assay plate. • 4. Add 5 μL of 50% DMSO for negative control into last column of assay plate. • 5. Mix with multi-channel pipettor or orbital shaker. • 6. Pre-incubate for 10 minutes at 37° C. • 7. Add 10 μL of 500 nM HGFR to each well of assay plate; the final HGFR concentration is 50 nM in a total final volume of 100 μL. • 8. Measure activity for 10 minutes at λ=340 nm and 37° C.
As for “4-(4-{6-Amino-5-[1- (2,6-dichloro-3-fluoro- phenyl)-ethoxy]-pyridin- 3-yl}-pyrazoI-1-yl)- piperidine-1- carboxylic acid dimethylamide [Example 120]”, the inhibitory constant (Ki) turned out to be 0.016 µM.

Staying with this assay, now noted: Met-2 substrate peptide, 50 nM HGFR, 37° C.; read-out: c-Met Ki.
With `CCOC(=O)[C@H]1CC1Cn1cc(-c2cnc(N)c(OC(C)c3c(Cl)ccc(F)c3Cl)c2)cn1` (stereo in doubt) [Example 9, ethyl 2-[(4-{6-amino-5-[1-(2,6-dichloro-3-fluorophenyl)ethoxy]pyridin-3-yl}-1H-pyrazol-1-yl)methyl]cyclopropanecarboxylate], the Ki worked out at 0.042 µM.

Regarding `CNC(=O)[C@H]1C[C@@H]1Cn1cc(-c2cnc(N)c(OC(C)c3c(Cl)ccc(F)c3Cl)c2)cn1` (stereo in doubt) [Example 10, 2-[(4-{6-amino-5-[1-(2,6-dichloro-3-fluorophenyl)ethoxy]pyridin-3-yl}-1H-pyrazol-1-yl)methyl]-N-methylcyclopropanecarboxamide], the Ki was determined as 0.071 µM. Turning to `CC(Oc1cc(-c2cnn(C[C@H]3C[C@@H]3C(=O)N(C)C)c2)cnc1N)c1c(Cl)ccc(F)c1Cl` (stereo in doubt) [Example 11, 2-[(4-{6-amino-5-[1-(2,6-dichloro-3-fluorophenyl)ethoxy]pyridin-3-yl}-1H-pyrazol-1-yl)methyl]-N,N-dimethylcyclopropanecarboxamide], the Ki amounted to 0.144 µM. As to `CC(Oc1cc(-c2cnn([C@H](C)C(=O)NCCCN(C)C)c2)cnc1N)c1c(Cl)ccc(F)c1Cl` (stereo in doubt) [Example 74, 2-(4-{6-Amino-5-[1-(2,6-dichloro-3-fluoro-phenyl)-ethoxy]-pyridin-3-yl}-pyrazol-1-yl)-N-(3-dimethylamino-propyl)-propionamide], the Ki is 0.04 µM. Regarding `CC(Oc1cc(-c2cnn(C[C@H]3COC(C)(C)O3)c2)cnc1N)c1c(Cl)ccc(F)c1Cl` (stereo in doubt) [Example 86, 3-[1-(2,6-Dichloro-3-fluoro-phenyl)-ethoxy]-5-[1-(2,2-dimethyl-[1,3]dioxolan-4-ylmethyl)-1H-pyrazol-4-yl]-pyridin-2-ylamine], the Ki is 0.062 µM. The same measure, in the same setting: the value for `CC(Oc1cc(-c2cnn(C[C@H](O)CO)c2)cnc1N)c1c(Cl)ccc(F)c1Cl` (stereo in doubt) [Example 87, 3-(4-{6-Amino-5-[1-(2,6-dichloro-3-fluoro-phenyl)-ethoxy]-pyridin-3-yl}-pyrazol-1-yl)-propane-1,2-diol] was 0.028 µM. The same measure, in the same setting: the value for `C[C@@H](Oc1nc(Br)cnc1N)c1c(Cl)ccc(F)c1Cl` [5-bromo-3-[(R)-1-(2,6-dichloro-3-fluoro-phenyl)-ethoxy]-pyrazin-2-ylamine] was 0.796 µM; that for `CC(Oc1cc(-c2cnn(CC3CN(C(=O)OC(C)(C)C)C3)c2)cnc1N)c1c(Cl)ccc(F)c1Cl` (stereo not drawn) [Example 1, tert-butyl 3-[(4-{6-amino-5-[1-(2,6-dichloro-3-fluorophenyl)ethoxy]pyridin-3-yl}-1H-pyrazol-1-yl)methyl]azetidine-1-carboxylate] was 0.066 µM; that for `CC(Oc1cc(-c2cnn(CC3(O)CCN(C(=O)OC(C)(C)C)CC3)c2)cnc1N)c1c(Cl)ccc(F)c1Cl` (stereo not drawn) [Example 3, tert-butyl 4-[(4-{6-amino-5-[1-(2,6-dichloro-3-fluorophenyl)ethoxy]pyridin-3-yl}1H-pyrazol-1-yl)methyl]-4-hydroxypiperidine-1-carboxylate] was 0.104 µM.

`CC(Oc1cc(-c2cnn(CC3(O)CCNCC3)c2)cnc1N)c1c(Cl)ccc(F)c1Cl` (stereo not drawn) [Example 4, 4-[(4-{6-amino-5-[1-(2,6-dichloro-3-fluorophenyl)ethoxy]pyridin-3-yl}1H-pyrazol-1-yl)methyl]piperidin-4-ol]: the Ki was 0.062 µM. As to `CC(Oc1cc(-c2cnn(C3CN(CC4CC4)C3)c2)cnc1N)c1c(Cl)ccc(F)c1Cl` (stereo not drawn) [Example 6, 5-{1-[1-(cyclopropylmethyl)azetidin-3-yl]-1H-pyrazol-4-yl}-3-[1-(2,6-dichloro-3-fluorophenyl)ethoxy]pyridin-2-amine], the Ki came to 0.038 µM. With `CC(Oc1cc(-c2cnn(C3CN(C(=O)CN(C)C)C3)c2)cnc1N)c1c(Cl)ccc(F)c1Cl` (stereo not drawn) [Example 7, 3-[1-(2,6-dichloro-3-fluorophenyl)ethoxy]-5-(1-{1-[(dimethylamino)acetyl]azetidin-3-yl}-1H-pyrazol-4-yl)pyridin-2-amine], the Ki amounted to 0.022 µM. In the case of `CC(Oc1cc(-c2cnn(C3CN(CC#N)C3)c2)cnc1N)c1c(Cl)ccc(F)c1Cl` (stereo not drawn) [Example 8, [3-(4-{6-amino-5-[1-(2,6-dichloro-3-fluorophenyl)ethoxy]pyridin-3-yl}-1H-pyrazol-1-yl)azetidin-1-yl]acetonitrile], the inhibitory constant (Ki) amounted to 0.025 µM. The same measure, in the same setting: the value for `CC(Oc1cc(-c2cnn(C(C)(C)C(=O)O)c2)cnc1N)c1c(Cl)ccc(F)c1Cl` (stereo not drawn) [Example 12, 2-(4-{6-Amino-5-[1-(2,6-dichloro-3-fluoro-phenyl)-ethoxy]-pyridin-3-yl}-pyrazol-1-yl)-2-methyl-propionic acid] was 0.18 µM; that for `CC(Oc1cc(-c2cnn(C)c2N)cnc1N)c1c(Cl)ccc(F)c1Cl` (stereo not drawn) [Example 13, 5-(5-Amino-1-methyl-1H-pyrazol-4-yl)-3-[1-(2,6-dichloro-3-fluoro-phenyl)-ethoxy]-pyridin-2-ylamine] was 0.13 µM. Regarding `Cc1[nH]ncc1-c1cnc(N)c(OC(C)c2c(Cl)ccc(F)c2Cl)c1` (stereo not drawn) [Example 14, 3-[1-(2,6-Dichloro-3-fluoro-phenyl)-ethoxy]-5-(5-methyl-1H-pyrazol-4-yl)-pyridin-2-ylamine], the Ki was determined as 0.7 µM.

Consider `CC(Oc1cc(-c2cnn(C(C)(C)C(=O)NCCCN(C)C)c2)cnc1N)c1c(Cl)ccc(F)c1Cl` (stereo not drawn) [Example 16, 2-(4-{6-Amino-5-[1-(2,6-dichloro-3-fluoro-phenyl)-ethoxy]-pyridin-3-yl}-pyrazol-1-yl)-N-(3-dimethylamino-propyl)-isobutyramide], for which the Ki turned out to be 0.06 µM. Same read-out and setting: with `CC(Oc1cc(-c2cnn(C(C)(C)C(=O)N3CCNCC3)c2)cnc1N)c1c(Cl)ccc(F)c1Cl` (stereo not drawn) [Example 17, 2-(4-{6-Amino-5-[1-(2,6-dichloro-3-fluoro-phenyl)-ethoxy]-pyridin-3-yl}-pyrazol-1-yl)-2-methyl-1-piperazin-1-yl-propan-1-one] the figure was 0.44 µM.

Regarding `CC(Oc1cc(-c2cnn(C(C)(C)C(=O)N3CC[C@@H](O)C3)c2)cnc1N)c1c(Cl)ccc(F)c1Cl` (stereo partly drawn) [Example 18, 2-(4-{6-Amino-5-[1-(2,6-dichloro-3-fluoro-phenyl)-ethoxy]-pyridin-3-yl}-pyrazol-1-yl)-1-((R)-3-hydroxy-pyrrolidin-1-yl)-2-methyl-propan-1-one], the inhibition constant Ki was 0.27 µM. Same read-out and setting: with `CC(Oc1cc(-c2cnn(C(C)(C)C(=O)NCCN3CCOCC3)c2)cnc1N)c1c(Cl)ccc(F)c1Cl` (stereo not drawn) [Example 19, 2-(4-{6-Amino-5-[1-(2,6-dichloro-3-fluoro-phenyl)-ethoxy]-pyridin-3-yl}-pyrazol-1-yl)-N-(2-morpholin-4-yl-ethyl)-isobutyramide] the figure was 0.14 µM.

For the origin of these results see patent publication US20060128724A1, “Pyrazole-substituted aminoheteroaryl compounds as protein kinase inhibitors” (AGOURON PHARMACEUTICALS, INC., priority 2004, published 2006).
